Experimental findings from US8703796B2, “3H-imidazo [4, 5-B] pyridine-6-carboxamides as anti-inflammatory agents” (Boehringer Ingelheim International GmbH, priority 2008, dated 2014) are described below.

In this experiment the target is T1, recombinant human mPGES-1 (Homo sapiens, UniProt O14684).
T1 construct: made in house; host or cells: Rosetta E. coli (microsomal/membrane fraction)
T1 sequence (O14684 1-152): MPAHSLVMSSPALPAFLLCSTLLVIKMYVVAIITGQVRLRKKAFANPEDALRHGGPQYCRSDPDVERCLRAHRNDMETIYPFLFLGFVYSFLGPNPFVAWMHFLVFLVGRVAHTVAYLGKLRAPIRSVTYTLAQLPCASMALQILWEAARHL
Description: mPGES-1 inhibition, HTRF detection of PGE2. Format: biochemical. Here is the method: Microsomes from Rosetta E. coli bacteria expressing recombinant human mPGES-1 is dissolved in 0.1 M KPi pH 7.4 buffer containing 2.5 mM GSH. 50 μl of the enzyme is subsequently dispensed in a 384-well plate. 0.5 μl of the inhibitor dissolved in DMSO at is thereafter added to each well and incubated for 25 minutes at room temperature. Subsequently, 2 μl of PGH2 dissolved in an appropriate solvent is added to each well and after one minute the acidified stop solution containing FeCl2 is added. 4 μl of the total volume is transferred to a separate plate and diluted 750-fold in two separate steps before HTRF detection of PGE2.
The HTRf detection is performed by the use of a commercially available kit from CisBio essentially according to the manufacturer's protocol. Briefly, 10 μl of the diluted sample is transferred to a white 384-well plate. 5 μl of d2 and 5 μl Eu3+-Cryptate labeled anti-PGE2 is added to each well containing samples by the use of a Multidrop. The plate is covered with a plastic self-adhesive film, centrifuged at 1200 rpm for 1 minute and subsequently stored at +4° C. over night.
After over night incubation the fluorescence is measured by the use of an appropriate microplate reader. The fluorescence of europium cryptate, and d2 are measured using the following excitation and emission wavelength, europium cryptate: λmax^ex=307 nm, λmax^em=620 nm and d2: λmax^ex=620 nm, λmax^em=665 nm), respectively. The extent of the specific FRET is measured as a ratio of the emission intensity at 665 nm vs. that at 620 nm. A standard curve using synthetic PGE2 is used to quantify the amount of PGE2 in unknown samples.
For the compound `Cn1c(Nc2ccccc2C(F)(F)F)nc2cc(C(=O)N[C@H]3CC[C@H](C(F)(F)F)CC3)c(OCC(F)F)nc21` [Example 782, 2-(2-Trifluoromethyl-phenylamino)-5-(2,2-difluoro-ethoxy)-N-(trans-4-trifluoromethyl-cyclohexyl)-3-methyl-3H-imidazo[4,5-b]pyridine-6-carboxamide], the inhibition at 10 µM was 100%. `Cn1c(Nc2c(F)cccc2Cl)nc2cc(C(=O)N[C@H]3CC[C@H](C(F)(F)F)CC3)c(OCC(F)F)nc21` [Example 783, 2-(2-Chloro-6-fluoro-phenylamino)-5-(2,2-difluoro-ethoxy)-N-(trans-4-trifluoromethyl-cyclohexyl)-3-methyl-3H-imidazo[4,5-b]pyridine-6-carboxamide]: the inhibition at 10 µM is 100%. The result for `O=C(N[C@H]1CC[C@H](C(F)(F)F)CC1)c1cc2nc(Nc3ccccc3C(F)(F)F)[nH]c2nc1OCC(F)F` [Example 784, 2-(2-Trifluoromethyl-phenylamino)-5-(2,2-difluoro-ethoxy)-N-(trans-4-trifluoromethyl-cyclohexyl)-3H-imidazo[4,5-b]pyridine-6-carboxamide] reads 97%. In the case of `O=C(N[C@H]1CC[C@H](C(F)(F)F)CC1)c1cc2nc(Nc3c(F)cccc3Cl)[nH]c2nc1OCC(F)F` [Example 785, 2-(2-Chloro-6-fluoro-phenylamino)-5-(2,2-difluoro-ethoxy)-N-(trans-4-trifluoromethyl-cyclohexyl)-3H-imidazo[4,5-b]pyridine-6-carboxamide], the inhibition at 10 µM came to 100%. As for `Cc1ccnc(Br)c1Nc1nc2cc(C(=O)N[C@H]3CC[C@H](C(F)(F)F)CC3)c(OCC(F)F)nc2n1C` [Example 786, 2-(2-Bromo-4-methyl-pyridin-3-ylamino)-5-(2,2-difluoro-ethoxy)-N-(trans-4-trifluoromethyl-cyclohexyl)-3-methyl-3H-imidazo[4,5-b]pyridine-6-carboxamide], the inhibition at 10 µM turned out to be 92%. As for `Cn1c(Nc2c(Cl)ccc(Cl)c2F)nc2cc(C(=O)N[C@H]3CC[C@H](C(F)(F)F)CC3)c(OCC(F)F)nc21` [Example 787, 2-(3,6-Dichloro-2-fluoro-phenylamino)-5-(2,2-difluoro-ethoxy)-N-(trans-4-trifluoromethyl-cyclohexyl)-3-methyl-3H-imidazo[4,5-b]pyridine-6-carboxamide], the inhibition at 10 µM was found to be 98%. The result for `Cc1ccnc(Cl)c1Nc1nc2cc(C(=O)N[C@H]3CC[C@H](C(F)(F)F)CC3)c(OCC(F)F)nc2n1C` [Example 788, 2-(2-Chloro-4-methyl-pyridin-3-ylamino)-5-(2,2-difluoro-ethoxy)-N-(trans-4-trifluoromethyl-cyclohexyl)-3-methyl-3H-imidazo[4,5-b]pyridine-6-carboxamide] reads 98%; that for `Cn1c(Nc2cnccc2C(F)(F)F)nc2cc(C(=O)N[C@H]3CC[C@H](C(F)(F)F)CC3)c(OCC(F)F)nc21` [Example 789, 2-(4-Trifluoromethyl-pyridin-3-ylamino)-5-(2,2-difluoro-ethoxy)-N-(trans-4-trifluoromethyl-cyclohexyl)-3-methyl-3H-imidazo[4,5-b]pyridine-6-carboxamide], 95%; that for `O=C(NCc1ccccc1C(F)(F)F)c1cc2nc(Nc3c(Cl)cncc3Cl)[nH]c2nc1OC1CCOC1` (stereo not shown) [Example 790, 2-(3,5-Dichloro-pyridin-4-ylamino)-5-(tetrahydrofuran-3-yl-oxy)-N-((2-trifluoromethyl-phenyl)-methyl)-3H-imidazo[4,5-b]pyridine-6-carboxamide], 97%.

As to `O=C(Nc1ccc(Br)cc1)c1cc2nc(Nc3c(Cl)cncc3Cl)[nH]c2nc1OC1CCOC1` (stereo not shown) [Example 791, 2-(3,5-Dichloro-pyridin-4-ylamino)-5-(tetrahydrofuran-3-yl-oxy)-N-(4-bromo-phenyl)-3H-imidazo[4,5-b]pyridine-6-carboxamide], the inhibition at 10 µM amounted to 89%.

With `O=C(NCC(F)(F)C(F)(F)C(F)(F)C(F)(F)F)c1cc2nc(Nc3c(Cl)cncc3Cl)[nH]c2nc1OC1CCOC1` (stereo not shown) [Example 792, 2-(3,5-Dichloro-pyridin-4-ylamino)-5-(tetrahydrofuran-3-yl-oxy)-N-(2,2,3,3,4,4,5,5,5-nonafluoro-pentyl)-3H-imidazo[4,5-b]pyridine-6-carboxamide], the inhibition at 10 µM came out at 96%. As to `Cc1cc(C)c(Nc2nc3cc(C(=O)N[C@H]4CC[C@H](C(F)(F)F)CC4)c(OCC(F)F)nc3[nH]2)c(Cl)n1` [Example 793, 2-(2-Chloro-4,6-dimethyl-pyridin-3-ylamino)-5-(2,2-difluoro-ethoxy)-N-(trans-4-trifluoromethyl-cyclohexyl)-3H-imidazo[4,5-b]pyridine-6-carboxamide], the inhibition at 10 µM was found to be 94%. For `Cc1ccnc(C)c1Nc1nc2cc(C(=O)N[C@H]3CC[C@H](C(F)(F)F)CC3)c(OCC(F)F)nc2[nH]1` [Example 794, 2-(2,4-Dimethyl-pyridin-3-ylamino)-5-(2,2-difluoro-ethoxy)-N-(trans-4-trifluoromethyl-cyclohexyl)-3H-imidazo[4,5-b]pyridine-6-carboxamide] the value was 100%; for `Cc1ccnc(Br)c1Nc1nc2cc(C(=O)N[C@H]3CC[C@H](C(F)(F)F)CC3)c(OCC(F)F)nc2[nH]1` [Example 795, 2-(2-Bromo-4-methyl-pyridin-3-ylamino)-5-(2,2-difluoro-ethoxy)-N-(trans-4-trifluoromethyl-cyclohexyl)-3H-imidazo[4,5-b]pyridine-6-carboxamide], 98%; for `O=C(N[C@H]1CC[C@H](C(F)(F)F)CC1)c1cc2nc(Nc3c(Cl)ccc(Cl)c3F)[nH]c2nc1OCC(F)F` [Example 796, 2-(3,6-Dichloro-2-fluoro-phenylamino)-5-(2,2-difluoro-ethoxy)-N-(trans-4-trifluoromethyl-cyclohexyl)-3H-imidazo[4,5-b]pyridine-6-carboxamide], 96%. For `Cc1ccnc(Cl)c1Nc1nc2cc(C(=O)N[C@H]3CC[C@H](C(F)(F)F)CC3)c(OCC(F)F)nc2[nH]1` [Example 797, 2-(2-Chloro-4-methyl-pyridin-3-ylamino)-5-(2,2-difluoro-ethoxy)-N-(trans-4-trifluoromethyl-cyclohexyl)-3H-imidazo[4,5-b]pyridine-6-carboxamide] the value was 100%. For `O=C(N[C@H]1CC[C@H](C(F)(F)F)CC1)c1cc2nc(Nc3cccnc3C(F)(F)F)[nH]c2nc1OCC(F)F` [Example 798, 2-(2-Trifluoromethyl-pyridin-3-ylamino)-5-(2,2-difluoro-ethoxy)-N-(trans-4-trifluoromethyl-cyclohexyl)-3H-imidazo[4,5-b]pyridine-6-carboxamide] the value was 87%. Consider `O=C(N[C@H]1CC[C@H](C(F)(F)F)CC1)c1cc2nc(Nc3cnccc3C(F)(F)F)[nH]c2nc1OCC(F)F` [Example 799, 2-(4-Trifluoromethyl-pyridin-3-ylamino)-5-(2,2-difluoro-ethoxy)-N-(trans-4-trifluoromethyl-cyclohexyl)-3H-imidazo[4,5-b]pyridine-6-carboxamide], for which the inhibition at 10 µM was 99%. The result for `COCCOc1nc2[nH]c(Nc3c(Cl)cncc3Cl)nc2cc1C(=O)NCc1ccccc1C(F)(F)F` [Example 800, 2-(3,5-Dichloro-pyridin-4-ylamino)-5-(2-methoxy-ethoxy)-N-((2-trifluoromethyl-phenyl)-methyl)-3H-imidazo[4,5-b]pyridine-6-carboxamide] reads 98%.
